Consider eight molecules from patent US12622893B2, “Alpha2 adrenergic agonist codrugs conjugated with muscarinic agonist drugs” (ADS THERAPEUTICS LLC, priority 2021, dated 2026).

Data set [1] is described as follows: In vitro metabolic stability in rabbit cornea homogenates. It is filed as in vitro ADME, Dutch Belted rabbits. As to conditions: 1 μM test compound, 0.3 mg/mL corneal protein homogenate, pH=6.0, 37° C.; for Rate of formation Metabolite 1: metabolite 1 = pilocarpine; for Rate of formation Metabolite 2: metabolite 2 as named under each value (Dexmedetomidine metabolite, brimonidine metabolite or brimonidine). As for the experimental part: Dutch Belted rabbits will be euthanized with an overdose of sodium pentobarbital. The corneas will be collected and homogenized in ice-cold potassium chloride solution (pH=7.4). The homogenate will be centrifuged at 755×g for 30 min at 4° C. and aliquots of the supernatant will be stored at or below −70° C. until metabolism experiments will be conducted. Prior to storing the homogenates, an aliquot will be removed for the determination of protein concentrations by calculating the […] using a spectrophotometer. All metabolic stability experiments will be performed in triplicate in 96-well plate format. The final incubation mixture will contain 1 μM test compound, 0.3 mg/mL corneal protein homogenate in a final volume of 0.5 mL 0.1 M potassium phosphate buffer (pH=6.0). The final percentage of solvent in the incubation will be less than 1.0% to prevent inhibition of enzymatic activity. Following a pre-incubation at 37° C., test article will be added to initiate the reaction. At designated time points (typically less than 60 minutes to capture the linear range of metabolite formation), 0.05 mL aliquots will be removed from the incubation mixtures using a clean pipet tip and immediately placed in organic solvent to stop any esterase activity. The hydrolysis to the metabolites will be confirmed to be due to esterase activity and not chemical stability. The samples will be analyzed by liquid chromatography with mass spectrometry (LC-MS/MS) detection to determine the metabolite concentrations resulting from the metabolism of the hybrid compounds. Internal standards were used to compensate for variability from sample processing, chromatographic elution, mass spectrometer response and ion suppression by matrix components.

Data set [2] has as its system rabbit pupil. In words: In vivo pharmacology study of measuring pupil size (Example 27). Further details: species or system Dutch belted rabbits. The following applies: FIG. 2; 0.5% and 2%. As for the experimental part: (§1) Three (3) female Dutch belted rabbits were randomly assigned to each group by Provantis or Excel based on body weight. Each animal was dosed 40 μL of testing article (see Table 4 below) to both eyes. The pupil sizes of both eyes were measured at baseline (30 minutes before dosing), 0.5 h, 1 h, 2 h, 3 h, 4 h, 6 h, 8 h after dosing. The pupil size measurement data were analyzed for efficacy of pupil constriction. CBT compounds tested are co-drugs of pilocarpine-alpha adrenergic agonists as described above. The vehicle used to dissolve CBT compounds is the same as the vehicle used in the negative control in group 1. Positive control 1 is 1.25% Pilocarpine HCl in an aqueous buffer. Positive control 2 is 3.0% Carbachol and 0.2% Brimonidine in an aqueous buffer. This control can result in a large pupil constrictive effect.

Data set [3] concerns rabbit pupil. The data set can be described thus: In vivo pharmacology study of measuring pupil size (Example 28). As to conditions: FIG. 3; for efficacy of pupil constriction compared with positive control 1: positive control 1 is 1.25% Pilocarpine HCl; for potency of pupil constriction compared with other co-drugs: all co-drugs at 1%. Further details: species or system Dutch belted rabbits. As to the method:
as §1, with “Table 5” for “Table 4”, “8 h, 24” for “8”, “constriction. Co-drug” for “constriction. CBT”, “compounds” for “compounds tested”, “dissolve Co-drug” for “dissolve CBT”

Data set [4] in a line: In vivo ocular pharmacokinetics following a single topical ophthalmic administration. The following applies: 0.5% (w/v) solution; for Conc. of Co-drug in Cornea Tissue: both eyes. Further details: species or system New Zealand White Rabbits. As to the method:
Rabbits will be dosed once by ocular instillation to both eyes with each compound formulated in a 0.5% (w/v) solution. At 0.25, 0.5, 1, 2, 6 and 10 hours post dose, cornea, aqueous humor, conjunctiva and eyelid margin will be collected and stored at approximately −70° C. until bioanalysis. Ocular tissue samples will be analyzed by liquid chromatography with mass spectrometry detection to determine the parent and metabolite (pilocarpine and brimonidine) concentrations resulting from the metabolism of ester linked co-drugs. Internal standards will be used to compensate for variability from sample processing, chromatographic elution, mass spectrometer response and ion suppression by matrix components. […]

The mark [5] stands for this setting: 0.25 hr after dosing the co-drug.
Setting [6] is: 0.5 hr after dosing the co-drug.

On to `CC[C@H](C(=O)OCc1cccc([C@H](C)c2c[nH]cn2)c1C)[C@H](CO)Cc1cncn1C` [Compound-1, 3-((S)-1-(1H-imidazol-4-yl)ethyl)-2-methylbenzyl (2S,3R)-2-ethyl-4-hydroxy-3-((1-methyl-1H-imidazol-5-yl)methyl)butanoate], for which, in data set [1], the “Rate of formation Metabolite 1” value worked out at 5.56 ± 0.43 nM/min/mg and the “Rate of formation Metabolite 2” value is on record as 3.52 ± 0.23 nM/min/mg.
Take `CC[C@H](C(=O)OCc1cccc([C@H](C)c2c[nH]cn2)c1C)[C@H](COC(C)=O)Cc1cncn1C` [Compound-2, 3-((S)-1-(1H-imidazol-4-yl)ethyl)-2-methylbenzyl (2S,3R)-4-acetoxy-2-ethyl-3-((1-methyl-1H-imidazol-5-yl)methyl)butanoate]: the “dose relation of pupil constriction” value in data set [2] is on record as “dose-related effects”. Further, in data set [1], the “Rate of formation Metabolite 1” value turned out to be 4.34 ± 0.11 nM/min/mg and the “Rate of formation Metabolite 2” value amounted to 2.87 ± 0.78 nM/min/mg.
On to `CC[C@H](C(=O)OCOC(=O)N1CCN=C1Nc1ccc2[nH]cnc2c1Br)[C@H](COC(C)=O)Cc1cncn1C` [Compound-4, (((2S,3R)-4-acetoxy-2-ethyl-3-((1-methyl-1H-imidazol-5-yl)methyl)butanoyl)oxy)methyl 2-((4-bromo-1H-benzo[d]imidazol-5-yl)amino)-4,5-dihydro-1H-imidazole-1-carboxylate], for which, in data set [1], the “Rate of formation Metabolite 1” value was determined as 5.87 ± 0.97 nM/min/mg and the “Rate of formation Metabolite 2” value stood at 6.34 ± 0.07 nM/min/mg.
On to `CC[C@H](C(=O)N1CCN/C1=N/c1ccc2nccnc2c1Br)[C@H](COC(C)=O)Cc1cncn1C` [Compound-16, (2R,3S)-3-((Z)-2-((5-bromoquinoxalin-6-yl)imino)imidazolidine-1-carbonyl)-2-((1-methyl-1H-imidazol-5-yl)methyl)pentyl acetate], for which, in data set [3], the “efficacy of pupil constriction compared with positive control 1” value is reported as “efficacies similar to that of positive control 1”; the “potency of pupil constriction compared with other co-drugs” value was “better potency than Compound-15 and Compound-19”.
Turning to `CC[C@H](C(=O)N1CCN/C1=N/c1ccc2nccnc2c1Br)[C@H](COC(=O)C(C)(C)C)Cc1cncn1C` [Compound-20, (2R,3S)-3-((Z)-2-((5-bromoquinoxalin-6-yl)imino)imidazolidine-1-carbonyl)-2-((1-methyl-1H-imidazol-5-yl)methyl)pentyl pivalate], in data set [3], the “efficacy of pupil constriction compared with positive control 1” value is recorded as “efficacies similar to that of positive control 1”; the “potency of pupil constriction compared with other co-drugs” value is “better potency than Compound-15 and Compound-19”.
Turning to `CC[C@H](C(=O)OCOC(=O)N1CCN=C1Nc1ccc2[nH]cnc2c1Br)[C@H](CO)Cc1cncn1C` [compound 3, (((2S,3R)-2-ethyl-4-hydroxy-3-((1-methyl-1H-imidazol-5-yl)methyl)butanoyl)oxy)methyl 2-((4-bromo-1H-benzo[d]imidazol-5-yl)amino)-4,5-dihydro-1H-imidazole-1-carboxylate], in data set [1], the “Rate of formation Metabolite 1” value is 8.86 ± 0.13 nM/min/mg and the “Rate of formation Metabolite 2” value was 1.23 ± 0.03 nM/min/mg.
In the same order, the values of `CC[C@H](C(=O)OCOC(=O)N1CCN=C1Nc1ccc2nccnc2c1Br)[C@H](CO)Cc1cncn1C` [compound 5, (((2S,3R)-2-ethyl-4-hydroxy-3-((1-methyl-1H-imidazol-5-yl)methyl)butanoyl)oxy)methyl 2-((5-bromoquinoxalin-6-yl)amino)-4,5-dihydro-1H-imidazole-1-carboxylate] are 2.13 ± 0.24 nM/min/mg and 4.98 ± 0.34 nM/min/mg.
In the case of `CC[C@H](C(=O)OCOC(=O)N1CCN=C1Nc1ccc2nccnc2c1Br)[C@H](COC(C)=O)Cc1cncn1C` [compound 6, (((2S,3R)-4-acetoxy-2-ethyl-3-((1-methyl-1H-imidazol-5-yl)methyl)butanoyl)oxy)methyl 2-((5-bromoquinoxalin-6-yl)amino)-4,5-dihydro-1H-imidazole-1-carboxylate], the “Conc. of Brimonidine (Metabolite 2) in Cornea Tissue” value in data set [4] (setting [5]) came out at 24 ± 12 ng/mL; in data set [4] (setting [6]) it was 78 ± 54 ng/mL; in data set [4] (1 hr after dosing the co-drug), 98 ± 23 ng/mL; in data set [4] (2 hr after dosing the co-drug), 139 ± 37 ng/mL; in data set [4] (6 hr after dosing the co-drug), 339 ± 134 ng/mL; in data set [4] (10 hr after dosing the co-drug), 539 ± 97 ng/mL. Besides, the “Conc. of Pilocarpine (Metabolite 1) in Cornea Tissue” value worked out at 39 ± 37 ng/mL in data set [4] (setting [5]); 139 ± 78 ng/mL in data set [4] (setting [6]); 379 ± 120 ng/mL in data set [4] (1 hr after dosing the co-drug); 539 ± 30 ng/mL in data set [4] (2 hr after dosing the co-drug); 754 ± 127 ng/mL in data set [4] (6 hr after dosing the co-drug); 867 ± 37 ng/mL in data set [4] (10 hr after dosing the co-drug). The “Conc. of Co-drug in Cornea Tissue” value stood at 7238 ± 345 ng/mL in data set [4] (0.25 hr post dose); 987 ± 245 ng/mL in data set [4] (0.5 hr post dose); 234 ± 33 ng/mL in data set [4] (1 hr post dose); 95 ± 19 ng/mL in data set [4] (2 hr post dose); 39 ± 37 ng/mL in data set [4] (6 hr post dose); 12 ± 3 ng/mL in data set [4] (10 hr post dose). In data set [1], the “Rate of formation Metabolite 1” value was found to be 7.43 ± 0.27 nM/min/mg. Besides, the “Rate of formation Metabolite 2” value in data set [1] was found to be 1.98 ± 0.09 nM/min/mg.
